These results are taken from patent US20250243186A1, “PIPERIDINYL INDOLE DERIVATIVES, PREPARATION METHODS AND MEDICINAL USES THEREOF” (HANSOH BIO LLC, priority 2021, published 2025).

Some results are limits rather than exact numbers.

In one test the target is Recombinant human Factor B catalytic domain (Homo sapiens (Human), UniProt P00751). Description: Factor B binding assay by TR-FRET. As to conditions: Factor B TR-FRET IC50 (nM), 10 nM his-tagged Factor B catalytic domain, 100 nM tracer, 1 h. A general note: TR-FRET usually uses a lanthanide donor and a delayed reading to cut background.
Chain of Recombinant human Factor B catalytic domain (P00751 470-764): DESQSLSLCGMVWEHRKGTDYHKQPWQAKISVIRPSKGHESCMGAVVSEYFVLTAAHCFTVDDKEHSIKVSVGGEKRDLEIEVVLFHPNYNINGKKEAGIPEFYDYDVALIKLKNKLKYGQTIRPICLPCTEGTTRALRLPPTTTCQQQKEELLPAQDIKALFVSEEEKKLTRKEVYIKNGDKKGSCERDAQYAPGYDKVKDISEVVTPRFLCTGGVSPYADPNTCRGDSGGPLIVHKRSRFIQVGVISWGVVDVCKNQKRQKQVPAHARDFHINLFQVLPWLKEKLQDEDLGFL
Description: • 1. […] 5× Kinase Buffer A (Thermo Fisher, CAT #PV3189) • 3. LANCE Eu-W1024 Anti-6×His Antibody (PerkinElmer, CAT #AD0401) • 4.
DMSO (Thermo Fisher Scientific) • 6. Compounds—10 mM stock in DMSO • 7. Victor Nivo multimode plate reader (PerkinElmer) • 8.
Factor B binding affinity of each compound tested was determined using a time-resolved fluorescence resonance energy transfer (TR-FRET) technology. 10 nM recombinant his-tagged Factor B catalytic domain, varying concentrations of inhibitors, 4 nM LANCE Eu-W1024 Anti-6×His Antibody and 100 nM TR-FRET_tool2 tracer was incubated in 1× Kinase Buffer A for 1 h. Measurement was performed in a reaction volume of 15 μL by adding 5 μL of the test compound, 5 μL of Factor B/antibody mixture and 5 μL of tracer into white opaque 384-well assay plates.
The IC50 is the concentration that gives 50% inhibition. Take `Cc1cc(C)c2[nH]ccc2c1CN1C[C@@H]2CCCC2C1c1ccc(C(=O)O)cc1` (single isomer, unassigned) [9 (Isomer 2), 4-(2-((5,7-dimethyl-1H-indol-4-yl)methyl)octahydrocyclopenta[c]pyrrol-1-yl)benzoic acid]: the IC50 is 40.6 nM. In the case of `COc1cc(C)c2[nH]ccc2c1CN1CC2CC(C(F)F)CC2C1c1ccc(C(=O)O)cc1` (single isomer, unassigned) [39 (Isomer 1), 4-(5-(difluoromethyl)-2-((5-methoxy-7-methyl-1H-indol-4-yl)methyl)octahydrocyclopenta[c]pyrrol-1-yl)benzoic acid], the IC50 stood at 2.6 nM. Turning to `COc1cc(C)c2[nH]ccc2c1CN1CCC2(CCOC2)CC1c1ccc(C(=O)O)cc1` (single isomer, unassigned) [36 (Isomer 2), 4-(8-((5-methoxy-7-methyl-1H-indol-4-yl)methyl)-2-oxa-8-azaspiro[4.5]decan-7-yl)benzoic acid], the IC50 amounted to 16.6 nM.

With `COc1cc(C)c2[nH]ccc2c1CN1CCC2(CCOC2)CC1c1ccc(C(=O)O)cc1` (single isomer, unassigned) [36 (Isomer 3), 4-(8-((5-methoxy-7-methyl-1H-indol-4-yl)methyl)-2-oxa-8-azaspiro[4.5]decan-7-yl)benzoic acid], the IC50 turned out to be 125 nM. With `COc1cc(C)c2[nH]ccc2c1C(C)N1CC2CCCC2C1c1ccc(C(=O)O)cc1` (single isomer, unassigned) [37 (Isomer 3), 4-(2-(1-(5-methoxy-7-methyl-1H-indol-4-yl)ethyl)octahydrocyclopenta[c]pyrrol-1-yl)benzoic acid], the IC50 is 222 nM.

For the compound `COc1cc(C)c2[nH]ccc2c1CN1CC2(CCOC2)CC1c1ccc(C(=O)O)cc1` (single isomer, unassigned) [28 (Isomer 2), 4-(7-((5-methoxy-7-methyl-1H-indol-4-yl)methyl)-2-oxa-7-azaspiro[4.4]nonan-8-yl)benzoic acid], the IC50 turned out to be 81.5 nM. Still for that read-out and setting: with `COc1cc(C)c2[nH]ccc2c1CN1CCC2(CCC(F)(F)C2)CC1c1ccc(C(=O)O)cc1` (stereo not drawn) [Example 41, 4-(2,2-difluoro-8-((5-methoxy-7-methyl-1H-indol-4-yl)methyl)-8-azaspiro[4.5]decan-7-yl)benzoic acid] the figure was 20.1 nM.

Take `Cc1cc(C)c2[nH]ccc2c1CN1CCC(CCCO)=CC1c1ccc(C(=O)O)cc1` (single isomer, unassigned) [2 (Isomer 2), 4-(1-((5,7-dimethyl-1H-indol-4-yl)methyl)-4-(3-hydroxypropyl)-1,2,5,6-tetrahydropyridin-2-yl)benzoic acid]: the IC50 was found to be 360 nM.

As for `Cc1cc(C2CC2)c(CN2CC3CCCC3C2c2ccc(C(=O)O)cc2)c2cc[nH]c12` (single isomer, unassigned) [32 (Isomer 1), 4-(2-((5-cyclopropyl-7-methyl-1H-indol-4-yl)methyl)octahydrocyclopenta[c]pyrrol-1-yl)benzoic acid], the IC50 was 26.3 nM. On the same count and under the same terms, with `COc1cc(C)c2[nH]ccc2c1C(C)N1CC2CCCC2C1c1ccc(C(=O)O)cc1` (single isomer, unassigned) [37 (Isomer 1), 4-(2-(1-(5-methoxy-7-methyl-1H-indol-4-yl)ethyl)octahydrocyclopenta[c]pyrrol-1-yl)benzoic acid] the figure was 322 nM. Same read-out and setting: under `COc1cc(C)c2[nH]ccc2c1CN1CCC2(CCC1c1ccc(C(=O)O)cc1)CC2(F)F` (single isomer, unassigned) [24 (Isomer 2), 4-(1,1-difluoro-6-((5-methoxy-7-methyl-1H-indol-4-yl)methyl)-6-azaspiro[2.6]nonan-7-yl)benzoic acid] stands 729 nM. Same read-out and setting: under `COc1cc(C)c2[nH]ccc2c1CN1C[C@@H]2CC(C)(C)C[C@@H]2C1c1ccc(C(=O)O)cc1` (single isomer, unassigned) [34 (Isomer 2)] stands 180 nM; under `Cc1cc(C)c2[nH]ccc2c1CN1CCC(CF)CC1c1ccc(C(=O)O)cc1` (single isomer, unassigned) [7 (Isomer 2), 4-(1-((5,7-dimethyl-1H-indol-4-yl)methyl)-4-(fluoromethyl)piperidin-2-yl)benzoic acid], 157 nM; under `COc1cc(C)c2[nH]ccc2c1CN1CC2(CCOCC2)CC1c1ccc(C(=O)O)cc1` (stereo not drawn) [Example 30, 4-(2-((5-methoxy-7-methyl-1H-indol-4-yl)methyl)-8-oxa-2-azaspiro[4.5]decan-3-yl)benzoic acid], 132 nM. With `COc1cc(C)c2[nH]ccc2c1CN1CCC2(CCC1c1ccc(C(=O)O)cc1)CC2(F)F` (single isomer, unassigned) [24 (Isomer 1), 4-(1,1-difluoro-6-((5-methoxy-7-methyl-1H-indol-4-yl)methyl)-6-azaspiro[2.6]nonan-7-yl)benzoic acid], the IC50 was 1410 nM. Still for that read-out and setting: under `Cc1cc(C)c2[nH]ccc2c1CN1CCC2(CCCO2)CC1c1ccc(C(=O)O)cc1` (single isomer, unassigned) [2 (Isomer 6), 4-(8-((5,7-dimethyl-1H-indol-4-yl)methyl)-1-oxa-8-azaspiro[4.5]decan-7-yl)benzoic acid] stands 60 nM; under `Cc1cc(C)c2[nH]ccc2c1CN1CC2(CCCCC2)C1c1ccc(C(=O)O)cc1` (stereo not drawn) [Example 16, 4-(2-((5,7-dimethyl-1H-indol-4-yl)methyl)-2-azaspiro[3.5]nonan-1-yl)benzoic acid], 305 nM; under `COc1cc(C)c2[nH]ccc2c1CN1CCC2(CC1c1ccc(C(=O)O)cc1)CC2(F)F` (single isomer, unassigned) [8 (Isomer 2), 4-(1,1-difluoro-6-((5-methoxy-7-methyl-1H-indol-4-yl)methyl)-6-azaspiro[2.5]octan-5-yl)benzoic acid], 245 nM.

Turning to `COc1cc(C)c2[nH]ccc2c1C(C)N1CC2CCCC2C1c1ccc(C(=O)O)cc1` (single isomer, unassigned) [37 (Isomer 4), 4-(2-(1-(5-methoxy-7-methyl-1H-indol-4-yl)ethyl)octahydrocyclopenta[c]pyrrol-1-yl)benzoic acid], the IC50 amounted to 359 nM. In the case of `COc1cc(C)c2[nH]ccc2c1CN1CCCCC1c1ccc(C(=O)O)cc1C(F)F` (single isomer, unassigned) [26 (Isomer 1), 3-(difluoromethyl)-4-(1-((5-methoxy-7-methyl-1H-indol-4-yl)methyl)piperidin-2-yl)benzoic acid], the IC50 amounted to 31.5 nM. For `COc1cc(C)c2[nH]ccc2c1CN1CC2CC(C(F)F)CC2C1c1ccc(C(=O)O)cc1` (single isomer, unassigned) [39 (Isomer 2), 4-(5-(difluoromethyl)-2-((5-methoxy-7-methyl-1H-indol-4-yl)methyl)octahydrocyclopenta[c]pyrrol-1-yl)benzoic acid], the IC50 is 4.1 nM.

The same test, now with this note: read-out: Factor B TR-FRET IC50; 10 nM his-tagged Factor B catalytic domain, 100 nM tracer, 1 h.
As for `Cc1cc(C)c2[nH]ccc2c1CN1CCC(CCO)=CC1c1ccc(C(=O)O)cc1` (stereo not drawn) [Example 4, 4-(1-((5,7-dimethyl-1H-indol-4-yl)methyl)-4-(2-hydroxyethyl)-1,2,5,6-tetrahydropyridin-2-yl)benzoic acid], the IC50 was 173 nM. On the same count and under the same terms, under `COc1cc(C)c2[nH]ccc2c1CN1CCC2(C[C@H]1c1ccc(C(=O)O)c3ccccc13)CC(F)(F)C2` [Example 85] stands under 2 nM; under `COc1cc(C)c2[nH]ccc2c1CN1CCCCC1c1ccc(C(=O)O)c(C(F)F)c1` (stereo not drawn) [Example 25, 2-(difluoromethyl)-4-(1-((5-methoxy-7-methyl-1H-indol-4-yl)methyl)piperidin-2-yl)benzoic acid], 322 nM; under `COc1cc(C)c2[nH]ccc2c1CN1CCC2(C[C@H]1c1ccc(C(=O)O)c(F)c1)CC(F)(F)C2` [Example 64], under 2 nM. Same read-out and setting: under `Cc1cc(C)c2[nH]ccc2c1CN1CC2CC2C1c1ccc(C(=O)O)cc1` (stereo not drawn) [Example 1, 4-(3-((5,7-dimethyl-1H-indol-4-yl)methyl)-3-azabicyclo[3.1.0]hexan-2-yl)benzoic acid] stands 923 nM; under `COc1cc(C)c2[nH]ccc2c1CN1CC(CF)CC1c1ccc(C(=O)O)cc1` (stereo not drawn) [Example 21, 4-(4-(fluoromethyl)-1-((5-methoxy-7-methyl-1H-indol-4-yl)methyl)pyrrolidin-2-yl)benzoic acid], 844 nM. The same measure, in the same setting: under `[2H]C([2H])([2H])Oc1cc(C)c2[nH]ccc2c1CN1CCC2(C[C@H]1c1ccc(C(=O)O)cc1)CC(F)(F)C2` [Example 82] stands under 2 nM; under `Cc1cc(C)c2[nH]ccc2c1CN1C[C@@H]2CCCCC2C1c1ccc(C(=O)O)cc1` (stereo in doubt) [Example 10, 4-(2-((5,7-dimethyl-1H-indol-4-yl)methyl)octahydro-1H-isoindol-1-yl)benzoic acid], 265 nM; under `Cc1cc(C)c2[nH]ccc2c1CN1CCC2(C[C@H]1c1ccc(C(=O)O)cc1)CC(F)(F)C2` (single isomer, unassigned) [76 (Isomer 1)], under 2 nM. `COc1cc(C)c2[nH]ccc2c1CN1CCC2(C[C@H]1c1ccc(C(=O)O)c(C)c1)CC(F)(F)C2` [Example 62]: the IC50 was under 2 nM. With `Cc1cc(Br)c(CN2CCC3(C[C@H]2c2ccc(C(=O)O)cc2)CC(F)(F)C3)c2cc[nH]c12` (single isomer, unassigned) [78 (Isomer 1)], the IC50 amounted to 7.4 nM. Still for that read-out and setting: with `Cc1cc(C(=O)O)ccc1[C@@H]1CC2(CCN1Cc1c(C3CC3)cc(C)c3[nH]ccc13)CC(F)(F)C2` [Example 83] the figure was under 2 nM; with `CCOc1cc(C)c2[nH]ccc2c1CN1CCC2(C[C@H]1c1ccc(C(=O)O)cc1)CC(F)(F)C2` [Example 86], 2.1 nM; with `COc1cc(C)c2[nH]ccc2c1CN1CCC2(C[C@H]1c1ccc3c(C(=O)O)cccc3c1)CC(F)(F)C2` [Example 84], 3.1 nM.

`COc1cc(C)c2[nH]ccc2c1CN1CC2CN(CC(F)F)CC2C1c1ccc(C(=O)O)cc1` (stereo not drawn) [Example 23, 4-(5-(2,2-difluoroethyl)-2-((5-methoxy-7-methyl-1H-indol-4-yl)methyl)octahydropyrrolo[3,4-c]pyrrol-1-yl)benzoic acid]: the IC50 is 143 nM.
